Experiment: gradient 5% acetonitrile 3 min, to 50% in 2 min, to 85% in 15 min, held 3 min, 100 µL/min
Conditions: column: Zorbax Extend-C18 2.1 x 50 mm; eluents: water / acetonitrile, 0.1% formic acid
In short: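 Retention times come from adduct peaks that were picked computationally and then checked by hand. The standards, pure and pooled in mixtures of ~100 molecules, were run on a Zorbax Extend-C18 column (2.1 × 50 mm, 1.8 μm) at 100 μL/min with water and acetonitrile, each with 0.1% formic acid. Detection was by quadrupole time-of-flight mass spectrometry in positive and negative ionization mode, with a dead volume of 40 μL and a dwell volume of 900 μL.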

SMILES | RP-LC retention time
Cn1ccc2c(cc(C(=O)NCc3ccc(C(F)(F)F)cc3)n2C)c1=O | 754 s
Cc1ccc(C)c(NC(=O)C2CCCN2S(=O)(=O)c2ccc3c(c2)CCCC(=O)N3)c1 (stereo not drawn) | 810 s
Cc1ccccc1Nc1c(-c2cccc(O)c2)nc2cnccn12 | 744 s
O=C(CCS(=O)(=O)c1ccc(Cl)cc1)Nc1nnc(Cc2ccc3c(c2)OCO3)o1 | 726 s
CCOc1nccnc1N1CCC(NS(=O)(=O)C2CC2)C1 (stereo not drawn) | 1230 s
O=C(Nc1ccc2c(c1)C(=O)N1CCCCC1CCO2)c1ccc2nsnc2c1 (stereo not drawn) | 800 s
CC(=O)N(Cc1nn(C)c2c1CN(S(=O)(=O)c1ccccc1F)CC2)c1ccccc1 | 779 s
CC(C)Oc1ccc(-c2noc(CN3N=NC4C(=O)N(c5ccc(F)c(F)c5)C(=O)C43)n2)cc1 (stereo not drawn) | 1110 s
CC(C)C(C(=O)O)N1C(=O)c2cccc3cccc(c23)C1=O (stereo not drawn) | 795 s
O=C(NCCc1csc(C2CCCN(C(=O)C3(c4ccccc4)CC3)C2)n1)C1CC1 (stereo not drawn) | 762 s
Cc1cccc(OCC(=O)N2CCc3cc(-c4csc(C)n4)ccc32)c1 | 847 s
Fc1ccc(CN2CCC3(CC2)N=C(C2CC2)NO3)cc1 | 583 s
Cn1nc2c(c1NC(=O)c1cc(C(F)(F)F)cc(C(F)(F)F)c1)CCC2 | 927 s
COCCN1C(=O)[C@H]2CN(Cc3ccc(C)c(C)c3)C[C@H]2C1=O | 577 s
Cc1[nH]c(C)c(S(=O)(=O)N2CCC(C(=O)N3CCC(C)CC3)CC2)c1C(=O)N1CCCCC1 | 760 s
CNC(=O)[C@@H]1CN(C(=O)c2cc(C)no2)C[C@H]1COC | 558 s
CC(C)(C)c1cc(C(=O)NCc2cccnc2)nc2ccnn12 | 657 s
O=C1COc2cc(S(=O)(=O)N3CCC(C(=O)N4CCc5ccccc5C4)CC3)c(Cl)cc2N1 | 838 s
CCc1ccc(NC(=O)Nc2ccc3nnc(C)n3c2)cc1 | 712 s

SMILES | RP-LC retention time
COc1ccc2[nH]cc(CCNC(=O)C(C)C3CCN(S(=O)(=O)c4c(C)noc4C)CC3)c2c1 (stereo not drawn) | 831 s
CC(C)(C)CC(=O)N1CCN(c2nc(CN3CCOCC3)cs2)CC1 | 611 s
CCN(CC)C(=O)c1ccc(-c2nc3cc(NS(=O)(=O)c4ccc(F)c(F)c4)ccc3n2C)cc1 | 724 s
CC(CNC(=O)Cc1csc2nc(-c3ccccc3)cn12)c1ccccc1 (stereo not drawn) | 841 s
O=C(Nc1nnc(Cc2ccc3c(c2)OCCO3)o1)c1sc2ccccc2c1Cl | 950 s
CCOc1cc(C(=O)NC(C(=O)Nc2nc3ccccc3[nH]2)C(C)C)cc(OCC)c1OCC (stereo not drawn) | 824 s
C[C@]12CCC3[C@@H](CC[C@@H]4C[C@H](O)CC[C@]34C)[C@@H]1CCC2=O (stereo partly drawn) | 992 s
Cn1nc2ccc(S(=O)(=O)N3CCSCC3)cn2c1=O | 687 s
CC(C)CNC(=O)c1ccc2c(ccn2C)c1 | 784 s
Cc1ccccc1Oc1ccc(S(=O)(=O)NCCC(=O)O)cc1 | 759 s
O=C(Nc1cccc(C(F)(F)F)c1)c1cnc(-c2ccc(F)cc2)nc1-c1ccncc1 | 1060 s
CN(C)C(CNC(=O)NCc1cccs1)c1cn(C)c2ccccc12 (stereo not drawn) | 586 s
O=C(NCCn1nc(-c2cccs2)ccc1=O)c1ccc(=O)n(Cc2ccccc2)n1 | 678 s
O=c1c(=O)n(-c2ccccc2)ccn1Cc1nc(-c2cccc(F)c2)no1 | 805 s
O=C(NCC(=O)N1CCCc2ccccc21)c1ccccc1Br | 822 s
O=C(Cc1csc(NC(=O)C2CCC(=O)N2)n1)NCCC1=CCCCC1 (stereo not drawn) | 643 s
Cc1cccc(-c2noc(CSc3nc4cc5c(cc4c(=O)n3CC3CCCO3)OCO5)n2)c1 (stereo not drawn) | 1170 s
CC(=O)N1CCc2cc(C)c(S(=O)(=O)Nc3cccc(F)c3)cc21 | 731 s
COCCNc1c(C(=O)OC)c(=O)[nH]c2ccc(F)cc12 | 622 s

Second part, the molecule after the results:

RP-LC retention time | SMILES
630 s | CC(C)Oc1ccccc1CN1C[C@@H]2C(=O)N(CCCN3CCCC3=O)C(=O)[C@@H]2C1
635 s | O=C(COc1ccccc1)N1CCCCC1CCN1CCCCC1 (stereo not drawn)
623 s | Cn1c(CNC(=O)C2CCC2)nc2c1CN(C(=O)Cc1ccc(Cl)cc1)CC2
673 s | C[C@@H](NC(=O)c1ccc(Cl)cc1)C(=O)NCc1cscn1
754 s | CN1CCN(CCNC(=O)c2ccc(NC(=O)C3=CSCCO3)cc2)CC1
784 s | Cn1cccc1-c1noc(C2CCN(C(=O)c3ccoc3)C2)n1 (stereo not drawn)
730 s | C[C@H]1CN(C(=O)NCc2ccccc2)C[C@@H]1c1nc(-c2cccnc2)no1
785 s | CC(C)NC(=O)Cn1nc2c3cc(-c4ccc(F)cc4)nn3ccn2c1=O
807 s | CCN1C(=O)c2cc(C(=O)Nc3ccc(C)cc3)nn2CC1(C)C(=O)NC1CCCC1 (stereo not drawn)
593 s | Cc1cc(N2CCCC2)n2nc(CN(C)Cc3ccccc3)nc2n1
1190 s | O=C(COc1ccc(Cl)cc1)Nc1nc(-c2ccc(Cl)cc2)cs1
625 s | COc1ccc(Cl)cc1NC(=O)N1CCN(CCn2cnc3cccnc32)CC1
859 s | Cn1cc(-c2cc3n(n2)CCC(=O)N3CCCC(=O)N2CCN(c3ccccc3)CC2)c2ccccc21
959 s | CCCn1cc(C(=O)NCCOC)c(S(=O)(=O)N2CCN(c3ccccc3OCC)CC2)n1
794 s | CCn1cc(S(=O)(=O)Nc2cccc(OC)c2)c2cccnc21
861 s | Cc1ccc(NC(=O)N2CCC[C@@H]2C(=O)NCc2csc(-c3ccccc3)n2)cc1C
921 s | CSc1ccc(CNC(=O)CSc2nccc(N3CCN(c4cc(C)ccc4C)CC3)n2)cc1
675 s | CC(C(=O)N1CCN(c2ccccn2)CC1)C1CCN(C(=O)c2cc3cc(Cl)ccc3[nH]2)CC1 (stereo not drawn)
1010 s | O=C(NC1CCCC1)N1CC(Oc2ccccc2-c2nc(-c3ccccc3)no2)C1
720 s | Cc1cc2[nH]c(C(=O)Nc3ccc(F)c(C)c3)c(CN3CCOCC3)c2s1
1080 s | Cn1nccc1C(=O)N1CCc2c([nH]c3ccccc23)C1c1ccc(Cl)cc1 (stereo not drawn)
928 s | COc1cccc(NC(=O)c2cc(C)n3nc(C)cc3n2)c1
686 s | Cn1c(=O)n([C@H]2CCN(C(=O)Nc3ccc4c(c3)OCCO4)C2)c2ncccc21
796 s | O=C(Nc1cnc(N2CCCC2)nc1)c1cccc(Br)c1
736 s | CCN(CC)c1ncc2c(n1)CCC(C(=O)Nc1ccc(C(=O)OC)cc1)C2 (stereo not drawn)

RP-LC retention time | SMILES
799 s | CC(C)n1cnc(S(=O)(=O)N2CCC(C(=O)N3CCN(c4ccc(F)cc4)CC3)CC2)c1
824 s | Cc1cccc(CNC(=O)c2ccc3c(c2)nc2n3CCN(C3CCCCC3)C2=O)c1
680 s | CC(C)n1cnc2cc(CNC(=O)Cc3cccc(C(F)(F)F)c3)ccc21
765 s | N#Cc1ccc(C(=O)NC(c2ccccc2)c2nnc(N3CCCC3)o2)cc1 (stereo not drawn)
922 s | COc1ccc(NC(=O)C2CCN(S(=O)(=O)c3ccc4c(c3)sc(=O)n4C(C)C)CC2)cc1
736 s | O=C(Cc1c[nH]c2ncccc12)NC1CCN(Cc2ccccc2)CC1
743 s | CCn1cnc2ccc(-c3noc(COc4ccc(OC)cc4)n3)cc21
685 s | CCN1C(=O)c2cccnc2Sc2cc(NC(=O)C3CC3)ccc21
711 s | CCn1c(=O)c(=O)n(CC(=O)NC(C)Cc2ccco2)c2cccnc21 (stereo not drawn)
577 s | CCN1CCCn2cc(S(=O)(=O)N3CCN(c4ccccn4)CC3)cc2C1=O
669 s | CCc1ccc(NC(=O)Cn2nc3n(c2=O)CCCC3)cc1
570 s | CCCN1C(=O)C2CCC(=O)N2c2ccc(C(=O)NCCCN3CCOCC3)cc21 (stereo not drawn)
713 s | CCN1CCn2cc(S(=O)(=O)NCc3ccccc3Cl)cc2C1=O
750 s | CCc1cccc(NS(=O)(=O)c2cc3n(c2)CCN(CCOC)C3=O)c1
877 s | Cc1ccc(-n2cccc2CC(=O)NCc2ccc(N3CCOCC3)cc2)cc1
1080 s | Cc1cc(C)c2c(N)c(C(=O)Nc3cccc4cccnc34)sc2n1
976 s | Cc1cc(OCC(=O)Nc2ccc(F)cc2Cl)nc(N2CCN(c3ccccc3)CC2)n1
576 s | CCCN1CCN(CCCNc2nc(-c3ccc(OC)cc3)nc3ccccc23)CC1
933 s | COC(=O)c1ccccc1NC(=O)Cn1c(=O)n(-c2ccc(F)cc2)c(=O)c2c1cc(C)n2C
777 s | Cc1cc(Br)ccc1NC(=O)Cn1cnc2nc3c(cc2c1=O)CCCC3
624 s | CCOC(=O)CNC(=O)Cn1cnc2c(oc3ccccc32)c1=O
668 s | O=C(NCc1ccc(F)cc1F)C1CCN(c2cnc(N3CCCC3)nc2)CC1
1090 s | CCOc1nc2ccccc2nc1N1CCCC(C(=O)NCc2ccccc2)C1 (stereo not drawn)
669 s | COc1cccc(-c2ccc3nc(N4CCC(C(=O)NCCN(C)C)CC4)sc3n2)c1
1080 s | O=C(NCc1cccc(Cl)c1)C1CCCN(c2nccnc2Sc2ccccc2)C1 (stereo not drawn)
